What was measured:
[1] = Liver function in mice (plasma GOT, GPT, erythropoietin); format: in vivo, mouse; conditions: oral, 7 consecutive days
Method: Compound #4 (10 mg/100 μl of DMSO) (10 μl) and compound #4 (20 mg/100 μl of DMSO) (15 μl) were mixed with 190 μl and 185 μl, respectively, of corn oil to prepare low-concentration (5 μg/ml) compound #4 and high-concentration (15 μg/ml) compound #4 mixed solutions (200 μl each). Each mixed solution (200 μl) was orally administered to each mouse (C57BL/6N 8 W, male, 21-25 g) between 15:00 to 18:00 every day using a sonde. This administration was carried out for 7 consecutive days (n=4). Mice orally given DMSO were used as controls (n=4).
24 hours after the final administration, each mouse was cervically dislocated, and 500 μl of blood was collected from the heart. Then, an anticoagulant (10 μl of heparin) was added thereto, and the resulting blood was centrifuged (12000 rpm×20 min, 4° C.) to isolate plasma. The plasma concentrations of indexes for liver functions (GOT [glutamic oxaloacetic transaminase] and GPT [glutamic pyruvic transaminase]) were measured using Transaminase CII-Test Wako (manufactured by Wako Pure Chemical Industries, Ltd.) to examine the effect of improving liver functions. Also, the plasma concentration ([…]) of erythropoietin was measured using a kit (Quantikine Mouse/Rat Epo Immunoassay, manufactured by R&D Systems, Inc.).

ISN-1e cells = assay: ATP production in islet of Langerhans-derived ISN-1e cells (insulin secretion); format: cell-based, rat; conditions: compound 0.03 to 10 μM, 3 hours
Method: The ISN-1e cells were seeded at 2×10^5 cells/well to a 96-well cell culture plate and then cultured overnight. Compound #4 was mixed at each concentration (10, 3, 1, 0.3, 0.1, and 0.03 μM) into RPMI11640 common medium 2. After further culture for 3 hours, the concentration of ATP produced in the medium was measured using ATP Assay Reagent “of Cells” (manufactured by Toyo B-Net Co., Ltd.) and GloMa 96 Microplate Luminometer (manufactured by Promega K.K.). ISN-1e cells cultured in the absence of the compound (DMSO added [1%]) (“control” of FIG. 16) and ISN-1e cells cultured in the presence of an HIF activator (FG-4592 [10, 3, 1, 0.3, and 0.1 μM]) were used as controls.

[2] = system: MCA (middle cerebral artery) occlusion mouse models; assay: Cerebral ischemic injury, MCA occlusion mouse model (TTC staining); format: in vivo; conditions: 40 mg/kg intraperitoneal 4 hours before ischemia, 24 hours after reperfusion, vs DMSO, n=1
Method: Two types of compounds (compounds #4 and 35) (40 mg/kg of mouse body weight) were each intraperitoneally administered to a mouse 4 hours before ischemia (n=1). A vehicle (DMSO) was administered to a control (n=1). Anesthesia was induced in each mouse with 4% halothane and oxygen and maintained by the intraperitoneal administration of ketamine (40 mg/kg) and xylazine (4 mg/kg) at 30-minute intervals. After the induction of systemic anesthesia, bifurcation of the common carotid artery was exposed under a microscope. A 6-0 nylon thread having a silicon-coated tip was inserted from the internal carotid artery toward the central side so that its tip reached the anterior communicating artery. The common carotid artery was further ligated to block blood flow into the middle cerebral artery. After the ischemic burden for 30 minutes, the nylon thread was removed so that the ligated common carotid artery was released to induce reperfusion.
24 hours after the reperfusion, each mouse was cervically dislocated and then decapitated to excise the brain. Five coronal sections of the cerebrum having a thickness of 2 mm were prepared from the boundary between the cerebrum and the cerebellum. The coronal sections of the cerebrum were stained with TCC through a reaction at 37° C. for 20 minutes with a TTC solution diluted to 1.5% with PBS. […]

[3] = Plasma concentration in mice after tail vein administration (LC/MS/MS); format: in vivo, mouse
Method: Compound #4 was administered alone to the tail veins of 3 mice (C57BL/6N 8 W, male, 21-25 g). 30 minutes, 1 hour, and 6 hours after the administration, each mouse was cervically dislocated, and 500 μl of blood was collected from the heart. Then, an anticoagulant (10 μl of heparin) was added thereto, and the resulting blood was centrifuged (12000 rpm×20 min, 4° C.) to isolate plasma. DMSO (57 μl) was administered alone to the tail veins of mice, which were in turn used as controls.
The plasma concentration of the compound #4 was quantified using LC/MS/MS constituted by TSQ Quantum Ultra (manufactured by Thermo Fisher Scientific Inc.) and NANOSPACE SI-2 (manufactured by Shiseido Co., Ltd.). Conditions for the selected reaction monitoring (SRM) method of the compound #4 or 2-methyl-5-([2-naphthylamino]carbonyl)-3-thienyl)acetic acid used as an internal standard (hereinafter, referred to as an “internal standard compound”) are “m/z 311.1>116.0 (collision energy, CE=24)” and “m/z 324.1>280.0 (CE=14)”. “Xbridge C18 (150 mm×2.1 mm i.d., 3.5 μm particle size)” was selected as an analytical column. […] The compound #4 and the internal standard compound were detected 8.51 and 9.00 minutes, respectively (upper column of FIG. 10). […] The sample (1 μl) was introduced through a filter to LC/MS/MS to quantify the plasma concentration (μg/ml) of the compound #4 (lower column of FIG. 10).

SMILES: O=C(CC(C(=O)O)c1c[nH]c2ccccc12)c1ccc(F)cc1 (stereo not shown) [compound #4, 4-(4-Fluorophenyl)-2-(1H-indol-3-yl)-4-oxo-butanoic acid]
- erythropoietin concentration in the mouse plasma ([1]; low concentration (5 μg/ml) and high concentration (15 μg/ml)): elevate the erythropoietin concentration
- GOT concentration in the plasma ([1]; mice): lower
- GPT concentration in the plasma ([1]; mice): lower
- ATP concentration in the ISN-1e cells relative to the control (ISN-1e cells): two or more times relative to the control
- volume of the cerebral infarction site [2]: decreased
- time after administration up to which the compound is detected in plasma [3]: at least 6 hours
- detection in plasma ([3]; 30 minutes after the administration): detected at a high level

Reference: patent US10004718B2, “Erythropoietin expression promoter” (TOHOKU UNIVERSITY, priority 2012, dated 2018)
